According to paper PMC7059547, “Synthesis and herbicidal activities of aryloxyacetic acid derivatives as HPPD inhibitors” (Beilstein Journal of Organic Chemistry, 2020):
Entries after “also recorded” stand apart in the source; their conditions may differ. Like-named read-outs stand apart in the source and are kept apart here.

Experiments:
[1] = target: T1, Arabidopsis thaliana HPPD (AtHPPD) (Arabidopsis thaliana, UniProt P93836); assay: AtHPPD enzyme inhibition study; format: biochemical
T1 construct: made in house
T1 sequence (P93836 1-445): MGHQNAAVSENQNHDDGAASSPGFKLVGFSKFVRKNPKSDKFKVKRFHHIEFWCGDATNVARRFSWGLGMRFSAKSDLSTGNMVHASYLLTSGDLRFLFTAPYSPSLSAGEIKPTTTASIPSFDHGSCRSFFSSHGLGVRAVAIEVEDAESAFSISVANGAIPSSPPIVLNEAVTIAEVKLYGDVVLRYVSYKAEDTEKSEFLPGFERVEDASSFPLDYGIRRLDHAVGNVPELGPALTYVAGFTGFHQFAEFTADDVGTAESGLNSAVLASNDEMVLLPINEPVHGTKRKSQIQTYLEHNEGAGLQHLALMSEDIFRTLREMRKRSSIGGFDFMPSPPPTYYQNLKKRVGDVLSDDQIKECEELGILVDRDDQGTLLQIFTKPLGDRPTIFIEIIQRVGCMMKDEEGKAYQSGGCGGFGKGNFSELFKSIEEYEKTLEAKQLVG
Method: AtHPPD was prepared and puriﬁed according to the reported methods in the literature [19–2035–37].

[2] = tested on: E. crus-galli, S. faberii, D. sanguinalis, A. retroflexus, E. prostrata, A. juncea; assay: Post-emergence greenhouse herbicidal activity; format: in vivo; design: Sum of inhibition rate: scale not given here; details: 150 g ai/ha; for Sum of inhibition rate / herbicidal activity (in words): post-emergence; for Sum of inhibition rate: sum over six weeds (AJ, AR, EP, DS, EC, SF), 18 days after treatment
rice = assay: Postemergence crop safety, rice; format: in vivo; details: 150 g ai/ha, four-leaf stage, after 15 days
Method: (§1) The representative crops, rice, wheat, maize, cotton, soybean, and canola were selected to test the crop safety of compound II3, II4, and II5. The six crops were separately planted in ﬂowerpots (12 cm diameter) containing the composite nutrient soil and grown at room temperature. When the crops had reached the four-leaf stage, the safety experiments were conducted at the rate of 150 g ai/ha. After 15 days, the ﬁnal results of crop safety were evaluated with two duplicates per experiment (Table 3).

wheat = assay: Postemergence crop safety, wheat; format: in vivo; details: 150 g ai/ha; for % injury wheat: postemergence, four-leaf stage, after 15 days
Method: as §1

maize = assay: Postemergence crop safety, maize; format: in vivo; details: 150 g ai/ha; for % injury maize: postemergence, four-leaf stage, after 15 days
Method: as §1

cotton = assay: Postemergence crop safety, cotton; format: in vivo; details: 150 g ai/ha, four-leaf stage, after 15 days
Method: as §1

soybean = assay: Postemergence crop safety, soybean; format: in vivo; details: 150 g ai/ha, four-leaf stage, after 15 days
Method: as §1

canola = assay: Postemergence crop safety, canola; format: in vivo; details: 150 g ai/ha, four-leaf stage, after 15 days
Method: as §1

| SMILES | Ki ([1]; read-out: AtHPPD inhibition Ki) [nM] | Sum of inhibition rate [2] | also measured |
| --- | --- | --- | --- |
| CC1(C)CC(=O)C(C(=O)COc2ccc(Cl)cc2)=C(O)C1 [I5] | 1000 ± 36 | 110 | – |
| Cn1nc(C2CC2)c(C(=O)COc2ccc(Cl)cc2Cl)c1O [I7] | 360 ± 12 | 210 | – |
| CC1(C)CC(=O)C(C(=O)COc2c(Cl)cc(Cl)cc2Cl)=C(O)C1 [I9] | 310 ± 48 | 70 | – |
| Cc1nn(C)c(O)c1C(=O)COc1c(Cl)cc(Cl)cc1Cl [I10] | 240 ± 3 | 60 | – |
| Cn1nc(C2CC2)c(C(=O)COc2c(Cl)cc(Cl)cc2Cl)c1O [I11] | 81 ± 1 | 335 | – |
| Cn1nc(C(F)(F)F)c(C(=O)COc2c(Cl)cc(Cl)cc2Cl)c1O [I12] | – | 335 | herbicidal activity (in words) [2]: poorer than expected herbicidal activity |
| CC1(C)CC(=O)C(C(=O)COc2ccccc2[N+](=O)[O-])=C(O)C1 [I13] | 450 ± 33 | 30 | – |
| O=C1CCCC(O)=C1C(=O)COc1ccc([N+](=O)[O-])cc1 [I17] | 230 ± 4 | 80 | – |
| CC1(C)CC(=O)C(C(=O)COc2ccc([N+](=O)[O-])cc2)=C(O)C1 [I18] | 930 ± 6 | 70 | – |
| CC1(C)CC(=O)C(C(=O)COc2ccc([N+](=O)[O-])cc2Cl)=C(O)C1 [I22] | 1020 ± 9 | 70 | – |
| Cn1nc(C2CC2)c(C(=O)COc2ccc([N+](=O)[O-])cc2Cl)c1O [I24] | 260 ± 12 | 110 | – |
| O=C1CCCC(O)=C1C(=O)COc1cc(Cl)ccc1Oc1ccc(Cl)cc1Cl [I26] | 1900 ± 1 | 30 | – |
| Cc1ccc(OCC(=O)C2=C(O)CCCC2=O)c(C)c1 [I30] | 2200 ± 34 | 40 | – |
| Cc1ccc(OCC(=O)C2=C(O)CC(C)(C)CC2=O)c(C)c1 [I31] | 3100 ± 340 | 20 | – |
| COc1cc(C)ccc1OCC(=O)C1=C(O)CCCC1=O [I35] | – | 40 | Ki [1]: 3300 ± 140 nM |
| COc1cc(C)ccc1OCC(=O)C1=C(O)CC(C)(C)CC1=O [I36] | – | 20 | Ki [1]: 3400 ± 210 nM |
| COc1cc(C)ccc1OCC(=O)c1c(C)nn(C)c1O [I37] | – | 40 | Ki [1]: 2700 ± 530 nM |
| COc1cc(C)ccc1OCC(=O)c1c(C2CC2)nn(C)c1O [I38] | – | 50 | Ki [1]: 2900 ± 38 nM |
| O=C1CCCC(O)=C1C(=O)COc1nc(Cl)c(Cl)cc1Cl [II1] | 93 ± 7 | 50 | – |
| CC1(C)CC(=O)C(C(=O)COc2nc(Cl)c(Cl)cc2Cl)=C(O)C1 [II2] | 97 ± 10 | 20 | – |
| Cc1nn(C)c(O)c1C(=O)COc1nc(Cl)c(Cl)cc1Cl [II3] | 21 ± 4 | 415 | herbicidal activity (in words) [2]: broad-spectrum herbicidal activities; also recorded: excellent herbicidal activities; % injury rice (rice): 40%; crop tolerance of wheat (in words) (wheat): high tolerance; % injury wheat (wheat): 10%; crop tolerance / safety of maize (in words) (maize): high tolerance; % injury maize (maize): 10%; % injury cotton (cotton): 60%; % injury soybean (soybean): 50%; % injury canola (canola): 90% |
| Cn1nc(C2CC2)c(C(=O)COc2nc(Cl)c(Cl)cc2Cl)c1O [II4] | – | 520 | Ki [1]: 23 ± 6 nM; herbicidal activity (in words) [2]: broad-spectrum herbicidal activities; also recorded: slightly higher herbicidal activity than mesotrione; also recorded: excellent herbicidal activities; herbicidal activity for pre-emergence treatment (in words) ([2]; pre-emergence treatment as printed in the abstract): slightly better than that of mesotrione; % injury rice (rice): 30%; % injury wheat (wheat): 50%; crop tolerance / safety of maize (in words) (maize): safe for weed control in maize fields; also recorded: tolerance; also recorded: safe for use on maize; % injury maize (maize): 10%; % injury cotton (cotton): 60%; % injury soybean (soybean): 30%; % injury canola (canola): 100% |
| Cn1nc(C(F)(F)F)c(C(=O)COc2nc(Cl)c(Cl)cc2Cl)c1O [II5] | – | 415 | Ki [1]: 120 ± 3 nM; herbicidal activity (in words) [2]: excellent herbicidal activities; % injury rice (rice): 50%; % injury wheat (wheat): 50%; % injury maize (maize): 30%; % injury cotton (cotton): 90%; % injury soybean (soybean): 70%; % injury canola (canola): 100% |
| O=C1CCCC(O)=C1C(=O)COc1cccnc1[N+](=O)[O-] [III5] | 230 ± 11 | 50 | – |
| Cn1nc(C2CC2)c(C(=O)COc2cccnc2[N+](=O)[O-])c1O [III6] | 210 ± 42 | 60 | – |
| CS(=O)(=O)c1ccc(C(=O)C2C(=O)CCCC2=O)c([N+](=O)[O-])c1 [mesotrione, reference compound] | 13 ± 1 | 510 | % injury rice (rice): 50%; % injury wheat (wheat): 40%; % injury maize (maize): 10%; % injury cotton (cotton): 80%; % injury soybean (soybean): 50%; % injury canola (canola): 100% |

Continued, in another order:

| Ki ([1]; read-out: AtHPPD inhibition Ki) [nM] | SMILES | Sum of inhibition rate [2] | also measured |
| --- | --- | --- | --- |
| 1500 ± 31 | Cn1nc(C2CC2)c(C(=O)COc2ccccc2)c1O [I1] | 60 | – |
| 1300 ± 17 | Cn1nc(C(F)(F)F)c(C(=O)COc2ccccc2)c1O [I2] | 40 | – |
| 360 ± 12 | Cn1nc(C2CC2)c(C(=O)COc2ccccc2Cl)c1O [I3] | 80 | – |
| 590 ± 43 | Cn1nc(C(F)(F)F)c(C(=O)COc2ccccc2Cl)c1O [I4] | 40 | – |
| 930 ± 32 | Cn1nc(C(F)(F)F)c(C(=O)COc2ccc(Cl)cc2)c1O [I6] | 180 | – |
| 220 ± 23 | Cn1nc(C(F)(F)F)c(C(=O)COc2ccc(Cl)cc2Cl)c1O [I8] | 170 | – |
| 210 ± 42 | Cc1nn(C)c(O)c1C(=O)COc1ccccc1[N+](=O)[O-] [I14] | 40 | – |
| 270 ± 4 | Cn1nc(C2CC2)c(C(=O)COc2ccccc2[N+](=O)[O-])c1O [I15] | 40 | – |
| 440 ± 13 | Cn1nc(C(F)(F)F)c(C(=O)COc2ccccc2[N+](=O)[O-])c1O [I16] | 10 | – |
| 630 ± 2 | Cc1nn(C)c(O)c1C(=O)COc1ccc([N+](=O)[O-])cc1 [I19] | 100 | – |
| 500 ± 3 | Cn1nc(C2CC2)c(C(=O)COc2ccc([N+](=O)[O-])cc2)c1O [I20] | 60 | – |
| 1500 ± 41 | Cn1nc(C(F)(F)F)c(C(=O)COc2ccc([N+](=O)[O-])cc2)c1O [I21] | 100 | – |
| 12 ± 9 | Cc1nn(C)c(O)c1C(=O)COc1ccc([N+](=O)[O-])cc1Cl [I23] | 80 | – |
| 210 ± 43 | Cn1nc(C(F)(F)F)c(C(=O)COc2ccc([N+](=O)[O-])cc2Cl)c1O [I25] | 100 | – |
| 2000 ± 9 | Cc1ccc(OCC(=O)c2c(C)nn(C)c2O)c(C)c1 [I32] | 30 | – |
| 2800 ± 45 | Cc1ccc(OCC(=O)c2c(C3CC3)nn(C)c2O)c(C)c1 [I33] | 30 | – |
| 2800 ± 670 | Cc1ccc(OCC(=O)c2c(C(F)(F)F)nn(C)c2O)c(C)c1 [I34] | 30 | – |
| 1300 ± 56 | O=C1CCCC(O)=C1C(=O)COc1ccccc1 [I39] | 40 | – |
| 1200 ± 31 | Cc1nn(C)c(O)c1C(=O)COc1ccccc1 [I40] | 50 | – |
| 2000 ± 12 | Cn1nc(C(F)(F)F)c(C(=O)COc2ccc3ccccc3c2Br)c1O [III4] | 90 | – |
